In ChEMBL document CHEMBL1201862, “PubChem BioAssay data set” (2004) one finds EC50, IC50 and AC50 data, which are given here for 4 molecules.

Assay [1] in a line: NIH-3T3 fibroblast cytotoxicity, dose response, cytotoxicity control, cell-based, fluorescence, Alamar Blue, secondary assay (AID 2327).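 Further: NIH-3T3 mouse fibroblasts cultured with fluconazole at 8 µg/mL.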 It counts as functional.
Assay [2] deals with T1, Leucine aminopeptidase (Plasmodium falciparum 3D7, UniProt Q8IL11).
T1 sequence (Q8IL11 whole entry): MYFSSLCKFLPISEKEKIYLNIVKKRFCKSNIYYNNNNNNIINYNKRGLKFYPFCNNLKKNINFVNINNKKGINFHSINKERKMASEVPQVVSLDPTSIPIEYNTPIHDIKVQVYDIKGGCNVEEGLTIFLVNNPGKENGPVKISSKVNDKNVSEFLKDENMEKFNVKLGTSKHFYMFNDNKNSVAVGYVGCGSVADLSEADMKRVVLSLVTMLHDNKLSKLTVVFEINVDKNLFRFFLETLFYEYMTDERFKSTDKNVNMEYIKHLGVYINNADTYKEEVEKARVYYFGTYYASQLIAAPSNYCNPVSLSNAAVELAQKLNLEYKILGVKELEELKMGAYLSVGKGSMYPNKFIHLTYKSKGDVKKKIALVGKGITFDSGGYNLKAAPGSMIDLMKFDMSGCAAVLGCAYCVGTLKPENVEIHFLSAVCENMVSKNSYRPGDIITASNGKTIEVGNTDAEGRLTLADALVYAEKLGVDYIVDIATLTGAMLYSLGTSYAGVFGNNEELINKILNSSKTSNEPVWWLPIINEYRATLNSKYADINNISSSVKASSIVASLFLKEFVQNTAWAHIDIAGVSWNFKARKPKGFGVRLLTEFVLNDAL
Put plainly: P. falciparum M17LAP inhibitors, primary screen, biochemical, fluorogenic H-Leu-NHMec substrate, 1536-well (AID 1619). It counts as functional.

A short description of assay [3]: C. albicans growth with fluconazole, confirmation, fluorescence, retest (AID 2467). It counts as functional, cell-based.
The target of assay [4] is Large T antigen (Simian virus 40, UniProt P03070). In kind it is functional, Betapolyomavirus macacae.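 Further: Confirmatory-stage PubChem screen for compounds that inhibit SV40 T antigen.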
The target of assay [5] is Induced myeloid leukemia cell differentiation protein Mcl-1 (Homo sapiens, UniProt Q07820). Nature of the assay: MCL1-BIM BH3 interaction inhibitors, dose response, biochemical, fluorescence polarization, BIM-BH3 peptide, 1536-well (AID 2217). Background: Polarisation of emitted light reports the rotation of a fluorescent probe.
Assay [6] concerns the target T2, Estrogen receptor beta (Homo sapiens, UniProt Q92731).
Assay [7] addresses T2, Estrogen receptor beta. Put plainly: ERβ–SRC-3 coactivator interaction inhibitors, confirmation, orthogonal assay, biochemical, ELISA, streptavidin-HRP readout (AID 1060).
Assay [8] deals with Bcl-2-like protein 1 (Homo sapiens, UniProt Q07817). Put plainly: BCL-XL inhibitors, dose response, selectivity assay for MCL1 inhibitor project, biochemical, fluorescence polarization, 1536-well (AID 2218).
The target in assay [9] is Intestinal-type alkaline phosphatase (Mus musculus, UniProt P24822). Nature of the assay: PubChem AID 488785. In kind it is functional.
Assay [10] addresses T3, Alkaline phosphatase, tissue-nonspecific isozyme (Homo sapiens, UniProt P05186).
T3 sequence (P05186 whole entry): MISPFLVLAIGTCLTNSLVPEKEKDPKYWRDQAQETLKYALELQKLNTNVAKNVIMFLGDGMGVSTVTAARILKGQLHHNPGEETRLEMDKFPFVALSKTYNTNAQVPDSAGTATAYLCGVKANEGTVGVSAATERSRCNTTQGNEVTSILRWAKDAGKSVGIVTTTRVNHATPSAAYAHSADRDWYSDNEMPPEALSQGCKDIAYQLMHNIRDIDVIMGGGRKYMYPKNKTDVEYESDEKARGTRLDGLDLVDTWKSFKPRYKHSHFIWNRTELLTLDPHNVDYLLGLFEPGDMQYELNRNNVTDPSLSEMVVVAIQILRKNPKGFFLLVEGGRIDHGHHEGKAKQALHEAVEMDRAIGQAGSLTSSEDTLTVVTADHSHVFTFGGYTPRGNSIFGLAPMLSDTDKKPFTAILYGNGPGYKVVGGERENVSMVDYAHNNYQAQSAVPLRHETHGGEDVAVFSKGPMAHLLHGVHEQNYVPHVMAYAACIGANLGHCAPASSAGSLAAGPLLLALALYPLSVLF
Nature of the assay: TNAP enzyme inhibition by screening hits, dose response, selectivity assay for mouse IAP inhibitor project, biochemical, human TNAP, uHTS hits (AID 488906). It counts as functional.

The target in assay [11] is Intestinal-type alkaline phosphatase (Homo sapiens, UniProt P09923). Put plainly: inhibition of human intestinal alkaline phosphatase – biochemical, dose response (AID 488876). In kind it is functional.
Assay [12] concerns the target Albumin (Bos taurus, UniProt P02769). Put plainly: Counterscreen for inhibitors of T-cell receptor (TCR)-CD3 interaction: Fluorescence-based biochemical high throughput dose response assay to identify inhibitors of T-cell receptor (TCR)-CD3 interaction using a TAMRA-labeled BSA probe. In kind it is functional. A general note: A counterscreen serves to expose hits that act by an unwanted route or on another target.

For assay [13], the target named is T4, Histone-lysine N-methyltransferase NSD2 (Homo sapiens, UniProt O96028).
T4 sequence (O96028 whole entry): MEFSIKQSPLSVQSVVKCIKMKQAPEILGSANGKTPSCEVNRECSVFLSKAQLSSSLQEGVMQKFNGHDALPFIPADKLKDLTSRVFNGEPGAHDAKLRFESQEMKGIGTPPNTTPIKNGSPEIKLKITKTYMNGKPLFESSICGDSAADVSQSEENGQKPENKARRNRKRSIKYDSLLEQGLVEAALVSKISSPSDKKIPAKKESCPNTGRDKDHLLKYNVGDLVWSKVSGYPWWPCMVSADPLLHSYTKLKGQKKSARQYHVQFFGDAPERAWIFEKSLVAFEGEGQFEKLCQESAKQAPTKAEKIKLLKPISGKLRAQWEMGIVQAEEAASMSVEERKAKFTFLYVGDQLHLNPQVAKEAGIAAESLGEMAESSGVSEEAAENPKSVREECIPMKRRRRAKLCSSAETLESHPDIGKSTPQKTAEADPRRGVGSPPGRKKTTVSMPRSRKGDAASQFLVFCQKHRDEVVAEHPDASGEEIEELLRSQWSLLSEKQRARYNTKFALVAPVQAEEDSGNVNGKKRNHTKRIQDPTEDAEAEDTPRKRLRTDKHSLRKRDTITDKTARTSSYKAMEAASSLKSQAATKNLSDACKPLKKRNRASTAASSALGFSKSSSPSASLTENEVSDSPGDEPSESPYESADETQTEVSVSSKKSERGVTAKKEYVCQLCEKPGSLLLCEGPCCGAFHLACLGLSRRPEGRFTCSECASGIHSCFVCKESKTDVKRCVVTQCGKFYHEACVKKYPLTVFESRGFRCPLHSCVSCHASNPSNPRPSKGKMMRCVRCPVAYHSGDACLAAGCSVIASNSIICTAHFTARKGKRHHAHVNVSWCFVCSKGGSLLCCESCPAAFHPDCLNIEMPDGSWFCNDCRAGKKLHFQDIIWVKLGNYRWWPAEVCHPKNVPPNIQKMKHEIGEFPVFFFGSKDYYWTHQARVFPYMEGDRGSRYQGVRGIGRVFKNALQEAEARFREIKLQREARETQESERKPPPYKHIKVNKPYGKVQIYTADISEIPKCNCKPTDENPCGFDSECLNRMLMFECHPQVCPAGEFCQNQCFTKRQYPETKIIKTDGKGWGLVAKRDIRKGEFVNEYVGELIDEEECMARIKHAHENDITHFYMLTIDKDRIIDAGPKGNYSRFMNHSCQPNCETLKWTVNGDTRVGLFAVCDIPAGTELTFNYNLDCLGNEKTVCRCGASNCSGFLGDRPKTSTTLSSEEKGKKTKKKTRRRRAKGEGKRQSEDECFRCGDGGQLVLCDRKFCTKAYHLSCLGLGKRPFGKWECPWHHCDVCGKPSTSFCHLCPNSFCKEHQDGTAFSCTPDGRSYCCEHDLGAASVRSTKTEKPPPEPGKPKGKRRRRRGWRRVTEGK
In kind it is biochemical.

The nature of assay [14]: inhibitors of firefly luciferase expression or activity, dose response, H4 neuroglioma cells, luminescence (AID 1990). In kind it is functional, cell-based.
The target in assay [15] is Neuropeptide Y receptor type 1 (Homo sapiens, UniProt P25929). It counts as functional.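 Further: HEK293 cells with a CNG channel challenged with NPY then isoproterenol; potency as antagonist that reverses NPY suppression of cAMP signal.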
Assay [16] is described as follows: Luminescence Cell-Based Dose Response HTS to Identify Inhibitors of 5'UTR Stem-Loop Driven Prion Protein mRNA Translation in H4 Neuroglioblastoma Cells. [Related pubchem assays: 1827 (Project Summary), 1813 (Primary HTS)]. In kind it is functional.
A short description of assay [17]: inhibitors of SNCA 5'UTR-driven reporter translation, confirmation, H4 neuroglioma cells, luminescence (AID 1988). In kind it is functional, cell-based.
The target of assay [18] is Neuropeptide Y receptor type 2 (Homo sapiens, UniProt P49146). It counts as functional, cell-based.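 Further: HEK293 cells expressing the receptor and a CNG channel; stimulus was NPY near EC95 followed by isoproterenol to raise cAMP; antagonist potency measured as restoring cAMP signal that NPY suppresses.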
A short description of assay [19]: insulin promoter down-regulators in MIN6 cells, imaging, high-content screening, mouse beta cells (AID 1628). In kind it is functional.
The nature of assay [20]: cytotoxicity in MIN6 insulinoma cells, dose response, cytotoxicity control, cell-based, mouse insulinoma (AID 2122).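 Further: confirmatory high-throughput counterscreen run to flag cytotoxic compounds; mouse MIN-6 beta cells carrying an insulin promoter eGFP reporter.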 In kind it is functional.
For assay [21], the target named is T5, Mannose-6-phosphate isomerase (Homo sapiens, UniProt P34949).
T5 sequence (P34949 whole entry): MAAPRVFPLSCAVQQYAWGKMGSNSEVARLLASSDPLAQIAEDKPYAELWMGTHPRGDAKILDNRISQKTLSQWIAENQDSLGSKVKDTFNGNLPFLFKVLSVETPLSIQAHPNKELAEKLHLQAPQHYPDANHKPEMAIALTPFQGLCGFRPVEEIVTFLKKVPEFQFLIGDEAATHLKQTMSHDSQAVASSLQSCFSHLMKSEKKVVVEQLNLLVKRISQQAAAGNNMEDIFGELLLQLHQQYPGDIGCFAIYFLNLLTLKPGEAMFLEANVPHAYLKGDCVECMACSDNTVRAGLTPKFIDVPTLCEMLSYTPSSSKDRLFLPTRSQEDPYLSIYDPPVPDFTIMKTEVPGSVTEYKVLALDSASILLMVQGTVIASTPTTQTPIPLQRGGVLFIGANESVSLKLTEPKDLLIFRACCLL
Put plainly: inhibitors of human PMI, primary screen, biochemical, fluorescence intensity, coupled assay (AID 1209).

The target in assay [22] is T6, Bcl-2-like protein 10 (Homo sapiens, UniProt Q9HD36).
T6 sequence (Q9HD36 whole entry): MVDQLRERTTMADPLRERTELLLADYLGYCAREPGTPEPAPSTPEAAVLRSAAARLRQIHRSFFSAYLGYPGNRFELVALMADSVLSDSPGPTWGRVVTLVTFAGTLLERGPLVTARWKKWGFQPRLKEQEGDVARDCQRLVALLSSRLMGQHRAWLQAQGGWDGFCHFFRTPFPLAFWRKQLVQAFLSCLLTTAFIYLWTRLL
Put plainly: Biochemical TR3 FP assay of Bcl-B inhibitor potency, EC50 (AID 1243). It counts as functional.

Molecules are shown by their SMILES. Activity calls are given as the source filed them.

Large T antigen, sequence (P03070 whole entry): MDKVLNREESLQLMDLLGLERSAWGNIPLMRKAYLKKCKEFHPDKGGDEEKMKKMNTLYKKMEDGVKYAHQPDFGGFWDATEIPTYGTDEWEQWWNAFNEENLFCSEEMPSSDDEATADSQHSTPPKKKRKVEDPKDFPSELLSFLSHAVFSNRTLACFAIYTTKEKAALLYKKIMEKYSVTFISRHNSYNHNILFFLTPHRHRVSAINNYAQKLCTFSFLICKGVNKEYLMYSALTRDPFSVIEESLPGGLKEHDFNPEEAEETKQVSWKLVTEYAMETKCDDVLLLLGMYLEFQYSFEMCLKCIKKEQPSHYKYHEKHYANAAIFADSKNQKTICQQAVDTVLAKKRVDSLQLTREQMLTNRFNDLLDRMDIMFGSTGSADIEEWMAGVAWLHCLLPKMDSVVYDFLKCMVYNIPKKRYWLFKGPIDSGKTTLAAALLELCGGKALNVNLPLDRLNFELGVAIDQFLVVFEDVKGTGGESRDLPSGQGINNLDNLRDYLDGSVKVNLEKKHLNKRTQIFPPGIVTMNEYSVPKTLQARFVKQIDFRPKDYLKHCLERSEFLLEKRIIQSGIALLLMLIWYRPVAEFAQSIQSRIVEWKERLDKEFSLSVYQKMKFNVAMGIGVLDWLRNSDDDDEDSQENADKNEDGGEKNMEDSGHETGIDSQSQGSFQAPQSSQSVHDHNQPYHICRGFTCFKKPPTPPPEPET
T2 sequence (Q92731 whole entry): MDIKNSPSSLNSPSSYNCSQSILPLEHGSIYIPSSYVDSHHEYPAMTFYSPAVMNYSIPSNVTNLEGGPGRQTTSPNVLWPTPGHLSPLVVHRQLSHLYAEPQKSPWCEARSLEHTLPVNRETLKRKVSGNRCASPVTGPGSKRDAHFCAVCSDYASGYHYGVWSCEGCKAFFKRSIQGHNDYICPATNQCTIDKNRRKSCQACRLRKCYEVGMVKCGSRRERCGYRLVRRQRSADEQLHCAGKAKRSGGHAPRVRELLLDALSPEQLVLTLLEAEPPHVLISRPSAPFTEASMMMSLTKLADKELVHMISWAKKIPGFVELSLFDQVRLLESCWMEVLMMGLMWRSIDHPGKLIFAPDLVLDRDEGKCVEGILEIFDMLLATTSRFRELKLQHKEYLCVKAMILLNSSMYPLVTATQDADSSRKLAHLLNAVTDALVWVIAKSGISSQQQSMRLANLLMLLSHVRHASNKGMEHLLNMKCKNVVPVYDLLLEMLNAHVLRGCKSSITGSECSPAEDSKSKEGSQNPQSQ
Intestinal-type alkaline phosphatase (Mus musculus, UniProt P24822), sequence (P24822 whole entry): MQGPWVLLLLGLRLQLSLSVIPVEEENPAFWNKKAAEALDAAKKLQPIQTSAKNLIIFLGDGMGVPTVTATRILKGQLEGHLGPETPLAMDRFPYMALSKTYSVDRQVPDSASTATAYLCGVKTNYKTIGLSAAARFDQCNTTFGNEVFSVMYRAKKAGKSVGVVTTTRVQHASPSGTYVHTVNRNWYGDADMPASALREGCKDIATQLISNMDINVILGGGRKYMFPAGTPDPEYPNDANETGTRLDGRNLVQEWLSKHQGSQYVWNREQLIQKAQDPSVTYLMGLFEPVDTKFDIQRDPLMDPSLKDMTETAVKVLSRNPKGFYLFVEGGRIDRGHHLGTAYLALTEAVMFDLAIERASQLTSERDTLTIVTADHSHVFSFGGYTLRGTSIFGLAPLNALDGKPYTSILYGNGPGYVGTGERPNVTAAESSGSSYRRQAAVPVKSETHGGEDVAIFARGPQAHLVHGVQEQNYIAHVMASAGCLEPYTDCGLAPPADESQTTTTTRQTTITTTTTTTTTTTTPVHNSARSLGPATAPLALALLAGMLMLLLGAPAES
Albumin, sequence (P02769 whole entry): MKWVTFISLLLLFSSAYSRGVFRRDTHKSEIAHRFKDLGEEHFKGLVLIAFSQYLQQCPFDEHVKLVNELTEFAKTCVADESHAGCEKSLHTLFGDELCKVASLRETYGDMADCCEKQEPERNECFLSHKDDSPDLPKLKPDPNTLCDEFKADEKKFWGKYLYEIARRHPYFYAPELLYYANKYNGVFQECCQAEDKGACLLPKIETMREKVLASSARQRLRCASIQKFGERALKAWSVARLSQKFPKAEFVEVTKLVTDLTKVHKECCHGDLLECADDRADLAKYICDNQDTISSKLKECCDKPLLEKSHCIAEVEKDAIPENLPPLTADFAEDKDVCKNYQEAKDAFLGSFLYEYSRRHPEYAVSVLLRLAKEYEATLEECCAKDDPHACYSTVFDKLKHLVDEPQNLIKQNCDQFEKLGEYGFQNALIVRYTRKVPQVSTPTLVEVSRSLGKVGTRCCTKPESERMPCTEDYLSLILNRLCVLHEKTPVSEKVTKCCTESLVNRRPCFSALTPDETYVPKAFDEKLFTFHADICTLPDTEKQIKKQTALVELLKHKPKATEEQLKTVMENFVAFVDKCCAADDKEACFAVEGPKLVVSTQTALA
Intestinal-type alkaline phosphatase (Homo sapiens, UniProt P09923), sequence (P09923 whole entry): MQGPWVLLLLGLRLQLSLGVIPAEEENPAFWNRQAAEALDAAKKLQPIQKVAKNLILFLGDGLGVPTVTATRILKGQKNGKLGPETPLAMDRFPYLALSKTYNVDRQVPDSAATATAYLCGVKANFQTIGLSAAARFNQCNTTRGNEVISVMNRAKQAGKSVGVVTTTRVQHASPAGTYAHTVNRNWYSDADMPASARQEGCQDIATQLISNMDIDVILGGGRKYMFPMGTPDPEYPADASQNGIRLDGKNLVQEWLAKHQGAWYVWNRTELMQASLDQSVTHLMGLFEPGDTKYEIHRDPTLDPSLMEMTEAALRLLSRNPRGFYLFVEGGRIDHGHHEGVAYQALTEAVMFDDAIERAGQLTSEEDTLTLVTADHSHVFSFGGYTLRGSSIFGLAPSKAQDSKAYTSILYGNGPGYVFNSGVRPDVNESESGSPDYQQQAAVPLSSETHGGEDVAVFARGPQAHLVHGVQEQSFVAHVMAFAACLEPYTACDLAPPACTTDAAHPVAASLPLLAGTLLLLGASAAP
Bcl-2-like protein 1, sequence (Q07817 whole entry): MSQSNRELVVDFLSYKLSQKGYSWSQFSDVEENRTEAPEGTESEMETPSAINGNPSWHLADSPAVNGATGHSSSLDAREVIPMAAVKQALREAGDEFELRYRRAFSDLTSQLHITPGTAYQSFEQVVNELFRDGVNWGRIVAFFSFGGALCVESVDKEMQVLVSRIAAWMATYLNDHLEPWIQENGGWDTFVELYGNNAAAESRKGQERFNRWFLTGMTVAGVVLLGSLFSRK
Neuropeptide Y receptor type 2, sequence (P49146 whole entry): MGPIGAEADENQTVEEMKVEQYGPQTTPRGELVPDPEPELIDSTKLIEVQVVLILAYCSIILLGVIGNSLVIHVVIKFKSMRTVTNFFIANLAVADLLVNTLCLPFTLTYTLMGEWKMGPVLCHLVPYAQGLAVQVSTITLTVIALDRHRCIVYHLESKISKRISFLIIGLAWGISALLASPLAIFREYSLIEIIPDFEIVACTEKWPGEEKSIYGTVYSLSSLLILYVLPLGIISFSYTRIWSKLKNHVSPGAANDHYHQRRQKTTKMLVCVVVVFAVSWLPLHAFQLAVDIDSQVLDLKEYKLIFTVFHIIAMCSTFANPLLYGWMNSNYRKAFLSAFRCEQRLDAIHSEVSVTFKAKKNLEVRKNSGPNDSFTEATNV
Neuropeptide Y receptor type 1, sequence (P25929 whole entry): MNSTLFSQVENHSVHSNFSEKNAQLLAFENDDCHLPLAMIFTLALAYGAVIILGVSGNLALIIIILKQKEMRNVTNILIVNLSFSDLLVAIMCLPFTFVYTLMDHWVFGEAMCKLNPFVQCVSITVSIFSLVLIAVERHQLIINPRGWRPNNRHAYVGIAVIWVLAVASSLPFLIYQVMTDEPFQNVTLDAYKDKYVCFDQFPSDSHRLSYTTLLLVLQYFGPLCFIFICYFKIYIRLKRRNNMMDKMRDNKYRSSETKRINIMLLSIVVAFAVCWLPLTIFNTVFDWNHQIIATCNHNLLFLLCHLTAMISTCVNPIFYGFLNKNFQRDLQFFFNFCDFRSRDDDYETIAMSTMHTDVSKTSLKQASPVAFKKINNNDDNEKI
Induced myeloid leukemia cell differentiation protein Mcl-1, sequence (Q07820 whole entry): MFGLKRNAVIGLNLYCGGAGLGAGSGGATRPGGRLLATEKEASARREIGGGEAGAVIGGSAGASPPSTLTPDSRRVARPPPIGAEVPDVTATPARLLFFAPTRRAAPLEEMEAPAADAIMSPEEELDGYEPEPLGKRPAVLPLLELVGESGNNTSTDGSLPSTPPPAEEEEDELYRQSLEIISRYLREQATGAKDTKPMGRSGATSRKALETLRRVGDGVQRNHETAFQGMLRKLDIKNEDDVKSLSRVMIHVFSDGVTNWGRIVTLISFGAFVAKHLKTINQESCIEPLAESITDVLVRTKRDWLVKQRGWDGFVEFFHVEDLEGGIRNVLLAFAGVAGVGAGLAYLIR

Turning to `CCn1c(SCC(=O)c2ccc(O)c(O)c2)nnc1-c1ccccc1OC`, the EC50 was > 160 µM (inactive) in assay [1] and > 38 µM (not active) in [3]. The IC50 in assay [2] is 24.4 µM (active); in assay [4], 7.83 µM (active); in assay [5], 37.4 µM (not active); in assay [6], 5.06 µM (active); in assay [7], 93.8 µM (not active); in assay [8], > 109 µM (not active). Further, the IC50 in [9] was 1.43 µM (active); in assay [10], > 100 µM (inactive); in assay [11] it was > 100 µM (inactive); in [12], > 94.1 µM (inactive). Also, the AC50 in assay [13] is 9.05 µM (active).

For `C/C=C(/C)C(=O)O[C@@H]1c2c(ccc3ccc(=O)oc23)O[C@@H]1C(C)(C)OC(=O)/C(C)=C\C`, the 50% effective concentration (EC50) in assay [14] is 15.2 µM (active); in assay [16], > 120 µM (not active); in [17], > 120 µM (not active). Moreover, the IC50 was 5.85 µM (active) in assay [15] and 5.06 µM (active) in assay [18].

`Cc1ccc(Nc2nc(-c3ccc(O)c(O)c3)cs2)nc1`: the half-maximal inhibitory concentration (IC50) in [19] was 6.26 µM (active); in assay [20], 3.85 µM (active); in assay [4], 12.3 µM (active); in [21], 48.6 µM (active).

As for `COc1ccc(Nc2ccc(N)cc2)cc1`, the concentration for a half-maximal effect (EC50) in [22] was 7.22 µM (active).

As a reminder, the EC50 is the concentration at which the effect is half-maximal. The IC50 is the concentration that inhibits the measured activity by half. Broadly, the AC50 is the midpoint of the concentration-response curve, whichever way the signal moves.
